Data published in patent publication US9169509B2, “Topoisomerase 2b as a predictor of susceptibility to anthracycline-induced cardiotoxicity” (Board of Regents, The University of Texas System, priority 2013, dated 2015).

Key:
cardiomyocytes [1] = test: Microarray gene expression profiling with Ingenuity pathway analysis of cardiomyocytes isolated from doxorubicin-treated mice; type: in vivo, mouse
Procedure: Microarray-based Ingenuity pathway analysis was next used to study the effect of doxorubicin treatment in the Top2b^+/+ and Top2b^Δ/Δ heart in an unbiased way. Mice were treated with tamoxifen for 5 consecutive days. […] Cardiomyocytes were prepared from excised heart and mRNAs were extracted for microarray analysis. Ingenuity pathway analysis of microarray data based on expression changes (>1.5 fold) of 59,306 genes upon doxorubicin treatment identified perturbation (mainly activation) in p53 and β-adrenergic signaling pathways in Top2b^+/+ cardiomyocytes (left bars), but not in Top2bΔ/Δ cardiomyocytes (center bars) (FIG. 1a, FIG. 4a, and Table 1). No difference was found between untreated Top2b^+/+ and Top2b^Δ/Δ cardiomyocytes (right bars). Of particular interest is a 200 fold up-regulation of the transcript encoding p53DINP1, a p53-inducible gene that regulates apoptosis (Sohal et al., 2001) (FIG. 4b). There were also increases in the transcript of Apaf1, Bax, and Fas, genes important in the apoptosis pathway (Ogasawara et al., 1983) (FIG. 4c). Both p53DINP1, Apaf1, Bax, Mdm2, and Fas up-regulation were only observed in doxorubicin-treated Top2b^+/+, but not Top2b^Δ/Δ cardiomyocytes. This is consistent with the previous observation that doxorubicin and Top2b formed a DNA ternary cleavage complex to induce DNA double strand breaks (DSBs), leading to cell death (9).
To gain further insight into the pathogenesis of doxorubicin-induced cardiotoxicity, the transcriptome analysis was repeated 72 h following doxorubicin exposure. The Ingenuity pathway analysis of microarray data based on expression changes (>1.5 fold) of 59,306 genes upon doxorubicin treatment identified perturbation (mainly repression) in the mitochondria dysfunction and oxidative phosphorylation pathways in Top2b^+/+ cardiomyocytes (left bars), but not in Top2b^Δ/Δ cardiomyocytes (middle bars). No difference was found between untreated Top2b^+/+ and Top2b^Δ/Δ cardiomyocytes (right bars). There was a complete change in the ingenuity pathway profiles 72 h following doxorubicin exposure (FIGS. 1a,d). Early activation in the p53 pathway was replaced by mitochondrial dysfunction and oxidative phosphorylation pathways in the Top2b^+/+, but not Top2b^Δ/Δ cardiomyocytes (FIGS. 1a,d and Table 2). […] This was confirmed by qPCR of analysis of PGC-1α and PGC-1β transcripts (FIG. 1e). […] Consistent with the critical role exerted by PGC-1α and PGC-1β in mitochondrial biogenesis (Arany, Z. et al., 2006; Lai, L. et al., 2008), transcripts of key electron transport chains, such as Ndufa3 (NADH dehydrogenase 1 alpha subcomplex, 3, Complex1), Sdha (succinate dehydrogenase complex, subunit A, Complex II), and Atp5a (alpha subunit of Complex V) were decreased in the doxorubicin treated Top2b^+/+, but much less so in Top2b^Δ/Δ cardiomyocytes (FIG. 1e). […] Thus, in the presence of Top2b, doxorubicin caused decreases in transcripts of genes involved in the regulation of mitochondria biogenesis and function.
Total RNA was extracted from cardiomyocytes isolated from mouse heart 16 or 72 h after treatment with doxorubicin (25 mg/kg) or drug vehicle using TRIZOL reagent (Invitrogen), then purified with RNeasy Mini Kit (Qiagen) according to the manufacturer's instructions. Purified RNA samples were shipped on dry ice to Miltenyi Biotec Inc. for microarray analysis. Quality control of the sample RNA was performed by the company. Before hybridization, 100 ng of each sample RNA was used for T7-based amplification and Cy3 labeling. The hybridization procedure was performed according to the Agilent 60-mer oligo microarray processing protocol using the Agilent Gene Expression Hybridization Kit (Agilent Technologies). After an overnight hybridization (65° C.) the microarrays were washed and scanned using Agilent Microarray Scanner System (Agilent Technologies).

mouse heart = test: Cardiac MRI for measuring cardiac function after chronic doxorubicin; details: mice, doxorubicin 5 mg/kg ip once a week for 5 weeks; decreased from 57% (Example 4, FIG. 13)
Procedure: Before Cre induction, cardiac MRI scan was performed on each mouse to examine the baseline ejection fraction. Cardiomyocyte-specific Cre induction was carried out by treating mice with tamoxifen. […] Doxorubicin treatment (5 mg/kg, i.p., once a week for 5 weeks) was started 7 days after the second MRI scan. Two weeks after the last dose of doxorubicin, a third MRI scan was performed (FIG. 6a).
Every mouse in the EF experiments received 3 MRI scans, i.e., a baseline scan, a second scan 2 weeks after the end of tamoxifen treatment, and a third scan 2 weeks after the last dose of doxorubicin. […] Mice were anesthetized with isoflurane (2.5% in 97.5% O2), and scanned on a 7.0 T Biospec small animal scanner (Bruker Biospin Inc., Billerica, Mass.). Imaging gradients with 60 mm inner diameter (ID) were used with a 35 mm ID linear birdcage-style volume resonator. T1-weighted anatomic reference images were acquired using a three dimension (3D) fast low-angle shot (FLASH) gradient echo sequence. A retrospectively gated FLASH pulse sequence was used to acquire cardiac cine images with excellent contrast between bright blood and adjacent myocardium. To measure volumetric left ventricular ejection fraction (LVEF), at least 6 short axis images were scanned at 1 mm interval from the apex to the base of the heart. End-diastolic (ED) and end-systolic (ES) left ventricular volumes were obtained by the biplane area length method, and LVEF was calculated with the equation: [(ED-ES)/ED]/100.
Two weeks after completion of tamoxifen treatment mice were treated with doxorubicin or drug vehicle. Two cohorts of mice were treated with different schedules. […] To evaluate the chronic effect of doxorubicin on cardiac function, doxorubicin (5 mg/kg, i.p.) was administered once a week for 5 weeks, and cardiac function was examined 2 weeks after the last dose of doxorubicin by using MRI.
The effect of chronic doxorubicin treatment (5 mg/kg, ip, once a week for 5 weeks) was evaluated for its effect on ejection fraction.

cardiomyocytes [2] = test: Western blot of Ndufa3, Atp5a and Sdha in mitochondria isolated from cardiomyocytes; type: in vivo, mouse; details: cardiomyocytes of doxorubicin-treated Top2b+/+ mice, 72 h
Procedure: Expression of Top2b was examined in the hearts of mice. After sacrifice, the heart was quickly removed and homogenized immediately in lysis buffer. After homogenization, the lysate was sonicated at 4° C. and an aliquot was removed for protein concentration measurement. The lysate was stored at −80° C. for western blot analysis. 20 μg of lysate proteins were electrophoresed and transferred to PVDF membranes. Blots were blocked with 5% non-fat dry milk, and incubated overnight at 4° C. with anti-Top2b antibody (Abcam). To detect mitochondrial proteins, the mitochondria were isolated from cardiomyocytes. The cardiomyocytes were isolated with a Langendorff perfusion system according to a published protocol3. Briefly, heart was removed and rinsed with ice-cold PBS twice before connecting to a Langendorff apparatus through the aorta. The heart was perfused first with perfusion buffer for 3 m at 37° C. (3 ml/min), then digestion buffer (enzyme-containing) buffer at 37° C. for 8-10 m. The heart was disintegrated manually and the tissue/cells were separated by using forceps. […] After incubation with HRP-conjugated secondary antibodies for 40 m at room temperature, the blots were detected with a luminol-based detection kit (ECL, GE Health Care).

HL-1 cells = test: PGC-1 expression in HL-1 cells by RT-qPCR; type: cell-based; details: doxorubicin 1 μm for 2 or 4 hours
Procedure: FIGS. 7a-e: a, b. PGC-1 expression in HL-1 cells. […] Expression was measured with RT-qPCR. c, d. CHiP analysis in HL-1 cells. HL-1 cardiomyocytes were treated with (right bars) or without (left bars) DOX ([…]) for 2 hrs and isolated for ChIP using the Top2β antibody. The eluted DNA and Input were PCR amplified to detect specific promoter regions represented in the schematic above the respective ChIP data. […] CHiP study in cardiomyocytes. Cardiomyocytes were isolated from control (n=4) and Dox-treated (n=4) mice and subject to ChIP with the Top2b antibody. The data represent real-time PCR ratios for the fold-enrichment of Top2b at the respective promoters.

[3] = Top2b+/+ cardiomyocytes, 72 hrs after doxorubicin 25 mg/kg
[4] = wild type hearts, 72 h after doxorubicin, not in Top2b deleted

COc1cccc2c1C(=O)c1c(O)c3c(c(O)c1C2=O)C[C@@](O)(C(=O)CO)C[C@@H]3O[C@H]1C[C@H](N)[C@H](O)[C@H](C)O1 [doxorubicin]
Up-regulated genes associated with p53 signaling pathway (expression change, genes listed in Table 1) (cardiomyocytes [1]; Top2b+/+ cardiomyocytes, 16 hrs after doxorubicin 25 mg/kg i.p.): Up-regulated genes (>1.5 fold) associated with p53 signaling pathway
Down-regulated genes associated with mitochondrial dysfunction and oxidative phosphorylation pathways (genes listed in Table 2) (cardiomyocytes [1]; [3]): Down-regulated Genes (>1.5 fold)
Up-regulated genes associated with mitochondrial dysfunction and oxidative phosphorylation pathways (genes listed in Table 2) (cardiomyocytes [1]; [3]): Up-regulatedGenes (>1.5 fold)
Expression change of the genes identified in the p53 pathway (cardiomyocytes [1]; Top2bΔ/Δ cardiomyocytes, 16 hrs after doxorubicin 25 mg/kg i.p.): TP53INP1 is also called p53DINP1. The list was generated by Ingenuity software, and none of the genes identified in the p53 pathway had an expression change that reached 1.5 fold in Top2b^Δ/Δ cardiomyocytes.
Expression change of the genes identified in the mitochondrial dysfunction and oxidative phosphorylation pathways (cardiomyocytes [1]; Top2bΔ/Δ cardiomyocytes, 72 hrs after doxorubicin 25 mg/kg): The list was generated by Ingenuity software, and none of the genes identified in the 2 pathways had an expression change that reached 1.5 fold in Top2b^Δ/Δ cardiomyocytes.
PGC-1α downregulation (cardiomyocytes [1]; [4]): 1.5 fold
PGC-1β downregulation (cardiomyocytes [1]; [4]): 1.5 fold
Ejection fraction after treatment (mouse heart): 45%
Protein levels of Ndufa3, Atp5a and Sdha in mitochondria (cardiomyocytes [2]): reduction in the protein levels
Expression of PGC-1α (HL-1 cells): Reduced expression
Expression of PGC-1β (HL-1 cells): Reduced expression
